Assay results taken from patent US10167285B2, “Small-molecule HSP90 inhibitors” (Memorial Sloan Kettering Cancer Center, priority 2005, dated 2019).

Assays:
Hsp90 heart = experiment: Hsp90 competition assay, heart homogenate
Experimental: (§3) Hsp90 competition assay. Fluorescence polarization measurements were performed on an Analyst AD instrument (Molecular Devices, Sunnyvale, Calif.). […] The assay buffer (HFB) contained 20 mM HEPES (K) pH 7.3, 50 mM KCl, 5 mM MgCl2, 20 mM Na2MoO4, 0.01% NP40. Before each use, 0.1 mg/mL bovine gamma globulin (BGG) (Panvera Corporation, Madison, Wis.) and 2 mM DTT (Fisher Biotech, Fair Lawn, N.J.) were freshly added. […] Cell lysates were prepared rupturing cellular membranes by freezing at −70° C. and dissolving the cellular extract in HFB with added protease and phosphotase inhibitors. Organs were harvested from a healthy mouse and homogenized in HFB. Saturation curves were recorded in which GM-BODIPY (5 nM) was treated with increasing amounts of cellular lysates.

Solubility in PBS = type: physicochemical; settings: aqueous buffer, acid addition salt form
Experimental: (§1) Growth over 96 h was assessed.

SKI-Chen = experiment: Growth over 96 h in therapy-resistant SCLC cells; type: cell-based; settings: from a patient who failed every conventional therapy
Experimental: as §1

small cell lung tumors = experiment: Tumor growth inhibition in small cell lung cancer model; type: in vivo
[1] = test system: Hsp90 client proteins (Raf-1, Akt), PARP cleavage; experiment: Pharmacodynamics in small cell lung tumors; type: in vivo
H69AR = experiment: Growth over 96 h in adriamycin-resistant SCLC cells; type: cell-based; settings: resistant to adriamycin
Experimental: as §1

MDA-MB-468 cells = experiment: Anti-mitotic assay (Tg-3 microtiter immunoassay); type: cell-based, human; settings: 24 h, concentration dependent increase in Tg-3 luminescence
Experimental: Anti-mitotic assay. Black, clear-bottom microtiter 96-well plates (Corning Costar #3603) were used to accommodate experimental cultures. MDA-MB-468 cells were seeded in each well at 8,000 cells per well in growth medium (100 μL), and allowed to attach overnight at 37° C. and 5% CO2. Growth medium (100 μL) with drug or vehicle (DMSO) was gently added to the wells, and the plates were incubated at 37° C. and 5% CO2 for 24 h. Wells were washed with ice-cold TBST (2×200 μL). A house vacuum source attached to an eight-channel aspirator was used to remove the liquid from the 96-well plates. Ice-cold methanol (100 μL) was added to each well, and the plate was placed at 4° C. for 5 min. Methanol was removed by suction and plates were washed with ice-cold TBST (2×200 μL). Plates were further incubated with SuperBlock® blocking buffer (Pierce #37535) (200 μL) for 2 h at RT. The Tg-3 antibody (gift of Dr. Davies, Albert Einstein College of Medicine) diluted 1:200 in SuperBlock® was placed in each well (100 μL) except the control column that was treated with control antibody (Mouse IgM, NeoMarkers, NC-1030-P). After 72 h, wells were washed with ice-cold TBST (2×200 μL). […] Un-reacted antibody was removed by washing the plates with ice-cold TBST (3×200 μL) for 5 min on a shaker. The ECLTM Western Blotting Detection Reagents 1 and 2 in 1:1 mix (100 μL) was placed in each well and the plates were read immediately in an Analyst AD plate reader (Molecular Devices). Luminescence readings were imported into SOFTmax PROR 4.3.1. Anti-mitotic activity was defined as a concentration dependent increase in luminescence readings in compound-treated wells as compared to DMSO only treated wells.

[2] = Blood brain barrier penetration
U87 glioma cells = experiment: Clonogenic survival assay, radiosensitization; type: cell-based, human
Experimental: (§2) Colony forming efficiency was determined 10-12 days later and survival curves generated after normalizing for cell killing by Compound 9 alone. The results are summarized in FIG. 11A (Compound 9) and B (Compound 8).

U251 glioma cells = experiment: Clonogenic survival assay, radiosensitization; type: cell-based, human
Experimental: as §2

Hsp90 SKBr3 = experiment: Hsp90 competition assay, SKBr3 cell lysate; settings: read-out: EC50 Hsp90 SKBr3
Experimental: Hsp90 competition assay. Fluorescence polarization measurements were performed on an Analyst AD instrument (Molecular Devices, Sunnyvale, Calif.). […] The assay buffer (HFB) contained 20 mM HEPES (K) pH 7.3, 50 mM KCl, 5 mM MgCl2, 20 mM Na2MoO4, 0.01% NP40. Before each use, 0.1 mg/mL bovine gamma globulin (BGG) (Panvera Corporation, Madison, Wis.) and 2 mM DTT (Fisher Biotech, Fair Lawn, N.J.) were freshly added. GM-BODIPY was synthesized as previously reported^23a and was dissolved in DMSO to form 10 μM solutions. Recombinant Hsp90α was purchased from Stressgen Bioreagents (cat. No. SPP-776), (Victoria, Canada). Cell lysates were prepared rupturing cellular membranes by freezing at −70° C. and dissolving the cellular extract in HFB with added protease and phosphotase inhibitors. […] Saturation curves were recorded in which GM-BODIPY (5 nM) was treated with increasing amounts of cellular lysates.

[3] = Plasma and tumor levels in small cell lung cancer model; settings: tumor
Hsp90 lung = experiment: Hsp90 competition assay, lung homogenate
Experimental: as §3

[4] = test system: SKBr3 breast cancer cells; experiment: Growth inhibition, sulforhodamine B assay; type: cell-based, human; settings: Homo sapiens, SK-BR-3, 72 h, average of 3 measurements
Experimental: Cell culture. The human breast cancer cell lines SKBr3 and MDA-MB-468 were a gift from Dr. Neal Rosen (MSKCC). Cells were maintained in 1:1 mixture of DME:F12 supplemented with 2 mM glutamine, 50 units/mL penicillin, 50 […] and 10% heat inactivated fetal bovine serum (Gemini Bioproducts #100-10b) and incubated at 37° C., 5% CO2. Growth assays. Growth inhibition studies were performed using the sulforhodamine B assay as previously described.^29 In summary, experimental cultures were plated in microtiter plates (Nunc #167008). One column of wells was left without cells to serve as the blank control. Cells were allowed to attach overnight. The following day, growth medium having either drug or DMSO at twice the desired initial concentration was added to the plate in triplicate and was serially diluted at a 1:1 ratio in the microtiter plate. After 72 h of growth, the cell number in treated versus control wells was estimated after treatment with 50% trichloroacetic acid and staining with 0.4% sulforhodamine B in 1% acetic acid. […] Normal human renal proximal tubular epithelial (RPTEC) cells were purchased pre-seeded in 96-well plates (Clonetics, CC-3190). Upon receipt, cells were placed in a humidified incubator at 37° C., 5% CO2 and allowed to equilibrate for 3 h. Media was removed by suction and replaced with fresh media provided by the manufacturer. Cells were then treated with either drugs or DMSO for 72 h and the IC50 values were determined as described above.

CC(C)NCCCn1c(Sc2cc3c(cc2I)OCO3)nc2c(N)ncnc21 [Example 9, 8-(6-Iodo-benzo[1,3]dioxol-5-ylsulfanyl)-9-(3-isopropylamino-propyl)adenine]
Heart/SKBr3 (Hsp90 heart; ratio of EC50 Hsp90 values): 140
EC50 (Hsp90 heart; read-out: EC50 Hsp90 heart, normal tissue): 6900 ± 150 nM
solubility (Solubility in PBS): > 5 mM
activity in resistant SCLC cell line (SKI-Chen): retains its activity
tumor growth (small cell lung tumors; comparable to 17AAG, FIG. 9D): efficiently inhibited the growth
toxicity to the host (small cell lung tumors; in vivo): without toxicity
apoptosis of the tumor (PARP cleavage) ([1]; FIG. 9C): induces significant apoptosis
Raf-1 and Akt in tumor ([1]; one administered dose): efficiently degraded or inactivated
activity in resistant SCLC cell line (H69AR): retains its activity
Anti-mitotic (MDA-MB-468 cells): Yes
crossing of the blood brain barrier [2]: ability to cross the blood brain barrier
surviving fraction after compound treatment only (U87 glioma cells): 0.68
surviving fraction after compound treatment only (U251 glioma cells; U251 cells): 0.86
dose enhancement factors (U251 glioma cells; range across U251 and U87, 16 h exposure before X rays): 1.4-1.6
EC50 (Hsp90 SKBr3): 50.4 ± 4 nM
retention in tumors at pharmacologic doses [3]: more than 36 h
Lung/SKBr3 (Hsp90 lung; ratio of EC50 Hsp90 values): 48
EC50 (Hsp90 lung; read-out: EC50 Hsp90 lung, normal tissue): 2400 ± 240 nM
IC50 [4]: 50 ± 5 nM
